Laboratory results reported in patent US10322136B2, “Composition for inhibiting growth or proliferation of chronic myelogenous leukemia cancer stem cells, and screening method therefor” (HIROSHIMA UNIVERSITY, priority 2015, dated 2019).

How the values were obtained:
Slc15A2 transporter = molecular target: T1, Slc15A2 transporter (Mus musculus, UniProt Q9ES07); experiment: Slc15A2 transporter activity by [3H]GlySar uptake; assay type: cell-based; conditions: in the presence of 100 μM cefadroxil; pH 6.0; 60 or 120 min
T1 construct: endogenous in cells; host or cells: primary mouse normal KLS+ and CML KLS+ haematopoietic cells
T1 sequence (Q9ES07 1-729): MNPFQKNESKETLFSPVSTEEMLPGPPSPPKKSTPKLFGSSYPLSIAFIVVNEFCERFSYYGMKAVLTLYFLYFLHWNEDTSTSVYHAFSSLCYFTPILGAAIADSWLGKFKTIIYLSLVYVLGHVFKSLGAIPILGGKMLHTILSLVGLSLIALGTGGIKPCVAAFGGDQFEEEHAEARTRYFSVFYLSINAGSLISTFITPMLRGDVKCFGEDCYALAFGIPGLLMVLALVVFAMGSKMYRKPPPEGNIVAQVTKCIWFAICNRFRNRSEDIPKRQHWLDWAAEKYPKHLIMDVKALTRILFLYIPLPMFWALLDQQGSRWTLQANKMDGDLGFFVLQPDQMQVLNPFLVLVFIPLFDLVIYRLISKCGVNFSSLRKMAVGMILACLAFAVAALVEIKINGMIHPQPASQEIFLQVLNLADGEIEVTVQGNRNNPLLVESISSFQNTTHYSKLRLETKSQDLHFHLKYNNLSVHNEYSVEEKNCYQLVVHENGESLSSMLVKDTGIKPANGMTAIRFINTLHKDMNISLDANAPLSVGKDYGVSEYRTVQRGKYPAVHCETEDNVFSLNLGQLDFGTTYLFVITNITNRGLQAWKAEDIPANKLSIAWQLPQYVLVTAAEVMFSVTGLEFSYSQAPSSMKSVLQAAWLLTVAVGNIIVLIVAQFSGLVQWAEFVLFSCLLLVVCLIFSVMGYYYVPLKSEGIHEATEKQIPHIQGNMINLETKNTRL
Method: 6. Analysis of Slc15A2 Transporter Activity by [3H]GlySar Uptake
Slc15A2 transporter activity was determined using a well-established assay measuring [3H]GlySar uptake by cells suspended in an acidic transport medium (pH 6.0). Briefly, normal KLS^+ cells or CML KLS^+ cells (1×10^5) were suspended in a transport medium (125 mM NaCl, 4.8 mM KCl, 5.6 mM D-glucose, 1.2 mM CaCl2-2H2O4, 1.2 mM KH2PO4, 1.2 mM MgSO4-7H2O and 25 mM MES, pH 6.0) in the absence or presence of 100 μM cefadroxil (Sigma-Aldrich). To initiate the transporter reaction, [3H]GlySar (Moravek Biochemicals, Brea, Calif.) was added to the cell suspension. After 60 or 120 min, the radioactivity of [3H]GlySar internalized by cells was measured using a liquid scintillation counter.

normal HSCs = conditions: mouse, in vivo
Description: C57BL/6 (CD45.2 for the Ly5 locus) and congenic C57BL/6 (CD45.1 for the Ly5 locus; B6-Ly5.1) mice were purchased from Sankyo-Lab Service (Tsukuba, Japan). Lethally irradiated (9 Gy) C57BL/6 (CD45.2) recipient mice were reconstituted with 1×10^4 normal KLS^+ cells (HSCs) from congenic C57BL/6 (CD45.1) (B6-Ly5.1) mice in competition with 5×10^5 unfractionated BM MNCs derived from C57BL/6 (CD45.2) mice. Transplanted recipients then received vehicle or cefadroxil (36 mgKg^−1day^−1) from day 0 to 8 weeks post transplantation. Reconstitution of donor-derived cells (CD45.1) was monitored at 4 and 8 weeks post transplantation by flow cytometric analysis of peripheral blood mononuclear cells stained with monoclonal antibodies (mAbs) against CD45.2 (104)-FITC and CD45.1 (A20)-PE.

CML-KLS+ cells = experiment: Metabolomic analysis of dipeptides in KLS+ cells from treated CML-affected mice; assay type: in vivo, mouse; conditions: cefadroxil 36 mg/kg/day oral gavage for 30 days
Method: To detect inhibition of dipeptide uptake in vivo, immature KLS^+ cells were isolated from tet-inducible CML-affected (Tal1-tTA^+TRE-BCR-ABL1^+) mice (n=4 mice in each of the three independent experiments), and normal healthy littermate (Tal1-tTA^+) mice (n=6 mice in each of the two independent experiments) that had received vehicle or cefadroxil (36 mgKg^−1day^−1) by oral gavage for 30 days. […] In all cases, isolated cell pellets were frozen at −80° C. immediately after obtaining. Metabolomic profiling was performed by Metabolon Inc. (Durham, N.C.) using ultrahigh-performance liquid chromatography/mass spectroscopy (UPLC/MS/MS) and gas chromatography/MS (GC/MS). Data were compiled using the Metabolon LIMS (Laboratory Information Management System). The UPLC/MS/MS portion of the platform was based on a Waters Acquity UPLC (Waters) and a Q-Exactive high-resolution/accurate mass spectrometer (Thermo Scientific) interfaced with a heated electrospray ionization (HESI-II) source and Orbitrap mass analyzer. GC/MS was performed by a Trace DSQ fast-scanning single-quadrupole mass spectrometer using electron impact ionization (Thermo-Finnigan).

Smad3 Ser208 = experiment: Duolink in situ PLA, Smad3 Ser208 phosphorylation in LT-CML cancer stem cells; assay type: cell-based, mouse; conditions: 30 min; GlySar or cefadroxil 5 μM; rapamycin 100 nM
Method: To examine phosphorylation of Smad2, Smad3, p38MAPK, AMPK, and S6 ribosomal protein, and Foxo3a-Smad2 and Foxo3a-Smad3 interactions, Duolink® in situ PLA assay (Olink Bioscience) was used. LT-CML stem cells, ST-CML stem cells, CD48^+, MPP, and KLS^− CML cells that were freshly isolated from CML-affected mice, and LT-normal HSCs that were freshly isolated from healthy control littermates, were immediately fixed with 4% paraformaldehyde for 30 min.
For in vitro inhibitor experiments, LT-CML stem cells were incubated in 3% O2 at 37° C. for 30 min with vehicle (control; artificial gastric fluid solution (900 ml ddH2O containing 2.0 g of NaCl, 7 ml of conc. HCl and 3.2 g of pepsin)), 5 μM Ly364947 (TGF-β type I receptor kinase Alk5 inhibitor; Merck), 5 μM SB203580 (p38MAPK inhibitor; LC Laboratories), 5 μM GlySar (dipeptide transporter inhibitor; Sigma-Aldrich), 5 μM cefadroxil (dipeptide transporter inhibitor; Sigma-Aldrich), or 100 nM rapamycin (mTORC1 inhibitor; Cell Signaling Technologies). Treated cells were fixed with 4% paraformaldehyde for 30 min, and treated with 0.25% Triton X-100 for 15 min, washed and blocked by incubation in 5% FBS in TBS for 1 hr.
The proximate binding of these antibodies was then detected using Duolink® in situ PLA system which employs a set of two secondary antibodies in which one is conjugated to a minus strand PLA probe and the other is conjugated to a plus strand PLA probe. Nuclei were stained with DNA marker DAPI (Sigma). Stained slides were mounted using Fluoromount Plus (Diagnostic Biosystems) and fluorescent images were acquired by confocal microscopy (FV10i, Olympus) and Photoshop software (Adobe). The number of fluorescent foci per single cell was quantified using Duolink®Image Tool software (Olink Bioscience).

## CC1=C(C(=O)O)N2C(=O)[C@@H](NC(=O)[C@H](N)c3ccc(O)cc3)[C@H]2SC1 [cefadroxil]
Slc15A2 transporter
  [3H]GlySar uptake by CML-KLS+ cells: markedly decreased
Normal HSCs
  frequency of donor-derived CD45.1 MNCs in peripheral blood: no increase
CML-KLS+ cells
  levels of several dipeptides in immature CML-KLS+ cells: decreased
Smad3 Ser208
  Smad3 Ser208 phosphorylation: blocked
